Source: patent US4061862A, “Derivatives of 7-(cyclized)phenylglycyl-3-triazolo-thio methyl cephalosporin” (priority 1976, dated 1977)
In brackets after ≈: the same amount, converted by molar mass. Read-outs that look alike come from different tables or passages of the source.

Key:
Str. pyogenes A9604 = test: Antibiotic spectrum in nutrient broth, MIC; type: cell-based; details: Streptococcus pyogenes, 10^-3 dilution of overnight culture, 45% AAB + 5% serum + 50% broth, BL-S1052 adjusted for 97.5% content of BL-S640
Text: (§1) Antibiotic Spectrum in Nutrient Broth
(§2) *45% AAB + 5% serum + 50% broth listed above.
(§3) **Dilution of overnight broth culture.
(§4) ^(1) Adjusted for 97.5% content of BL-S640. In other words, the
(§5) numerical values are lowered, i.e. improved. This adjustment was also mad
(§6) in the tests reported below or in the alternative, a larger weight was
(§7) used to provide equivalent dosage.

S. pneumoniae A9585 = test: Antibiotic spectrum in nutrient broth, MIC; type: cell-based; details: Streptococcus pneumoniae, 10^-3 dilution of overnight culture, 45% AAB + 5% serum + 50% broth, BL-S1052 adjusted for 97.5% content of BL-S640
Text: as §1, §2, §3, §4, §5, §6, §7

Water solubility = type: physicochemical
Protocol: The sodium and potassium salts of formula I may be dissolved in water to form relatively concentrated solutions of at least 250 mg./ml. of activity. Concentrations of 250 mg./ml. of activity (pH 5.7-7.2) of these salts have acceptable aqueous stabilities.
g. Water solubility = Approximately 10 mg./ml. in water at 23° C.
3. Solubility = greater than 400 mg./ml.

Ent. cloacae A9656 = test: Antibiotic spectrum in nutrient broth, MIC; type: cell-based; details: Enterobacter cloacae, 10^-4 dilution, BL-S1052 adjusted for 97.5% content of BL-S640
Text: as §1, §3, §4, §5, §6, §7

S. aureus Smith A9537 = test: Antibiotic spectrum in nutrient broth, MIC; type: cell-based; details: Staphylococcus aureus, BL-S1052 adjusted for 97.5% content of BL-S640
Text: as §1, §3, §4, §5, §6, §7

[1] = tested on: S. aureus Meth-Res A15097; test: Antibiotic spectrum in nutrient broth, MIC; type: cell-based; details: Staphylococcus aureus; 10^-3 dilution; BL-S1052 adjusted for 97.5% content of BL-S640
Text: as §1, §3, §4, §5, §6, §7

E. coli A9675 = test: Antibiotic spectrum in nutrient broth, MIC; type: cell-based; details: Escherichia coli, 10^-4 dilution, BL-S1052 adjusted for 97.5% content of BL-S640
Text: as §1, §3, §4, §5, §6, §7

K. pneumoniae A15130 = test: Antibiotic spectrum in nutrient broth, MIC; type: cell-based; details: Klebsiella pneumoniae, 10^-4 dilution, BL-S1052 adjusted for 97.5% content of BL-S640
Text: as §1, §3, §4, §5, §6, §7

Ps. Aeruginosa A9843A = test: Antibiotic spectrum in nutrient broth, MIC; type: cell-based; details: Pseudomonas aeruginosa
Text: as §1, §3, §4, §5, §6, §7

Sal. enteritidis A9531 = test: Antibiotic spectrum in nutrient broth, MIC; type: cell-based; details: Salmonella enterica, 10^-4 dilution, BL-S1052 adjusted for 97.5% content of BL-S640
Text: as §1, §3, §4, §5, §6, §7

E. coli Juhl A15119 = test: Antibiotic spectrum in nutrient broth, MIC; type: cell-based; details: Escherichia coli, JUHLA15119; 10^-4 dilution; BL-S1052 adjusted for 97.5% content of BL-S640
Text: as §1, §3, §4, §5, §6, §7

Ser. marcescens A20019 = test: Antibiotic spectrum in nutrient broth, MIC; type: cell-based; details: Serratia marcescens, 10^-4 dilution, BL-S1052 adjusted for 97.5% content of BL-S640
Text: as §1, §3, §4, §5, §6, §7

Pr. mirabilis A9900 = test: Antibiotic spectrum in nutrient broth, MIC; type: cell-based; details: Proteus mirabilis, 10^-4 dilution, BL-S1052 adjusted for 97.5% content of BL-S640
Text: as §1, §3, §4, §5, §6, §7

K. pneumoniae A9977 = test: Antibiotic spectrum in nutrient broth, MIC; type: cell-based; details: Klebsiella pneumoniae, 10^-4 dilution, BL-S1052 adjusted for 97.5% content of BL-S640
Text: as §1, §3, §4, §5, §6, §7

Ent. cloacae A9657 = test: Antibiotic spectrum in nutrient broth, MIC; type: cell-based; details: Enterobacter cloacae, 10^-4 dilution, BL-S1052 adjusted for 97.5% content of BL-S640
Text: as §1, §3, §4, §5, §6, §7

[2] = Mouse blood levels after IM administration; type: in vivo; details: IM 10 mg./kg.
Protocol: Mouse Blood Levels after IM
Administration of 10 mg./kg. Body Weight
Blood Levels (mcg./ml.)
(§8) The compounds were prepared in 0.01% phosphate buffer. BL-S640 was used a
(§9) standard for all compounds.

[3] = Mouse blood levels after PO administration; type: in vivo; details: PO 100 mg./kg.
Protocol: ______________________________________
Mouse Blood Levels after PO
Administration of 100 mg./kg. Body Weight
The compounds were prepared in Tween-CMC. BL-S640 was used as standard fo

[4] = Paper chromatograms of rat urine for antibiotically active metabolites after IM administration; type: in vivo; details: rat urine 0-2 and 2-4 hours
Protocol: Paper chromatograms were run on rat urine collected between 0 and 2 and between 2 and 4 hours, following IM administration of BL-S1052 and BL-S640, for the detection of antibiotically active metabolites using descending chromatography with system No. 9 (butyl acetate:n-butanol:glacial acetic acid:H2 O = 80:15:40:24).

[5] = Urinary recovery after IM administration to rats; type: in vivo; details: rat, urine, read-out: Urinary recovery, percentage of administered dose recovered; for dose excreted at 6 h: 0-6 hr
Protocol: Urinary Recovery after IM
Administration of 50 and 10 mg./kg. to Rats
as §8, §9

[6] = Liquid chromatography, % free BL-S640 present (hydrolysis in solution); type: physicochemical; details: 1 mg./ml.
Protocol: 5. Liquid Chromatography (concentration = 1 mg./ml.)
Time in Hours % Free BL-S640 Present

O=C(O)C1=C(CSc2c[nH]nn2)CSC2C(N3C(=O)C(c4ccc(O)cc4)NC3c3ccco3)C(=O)N12 (centres unmarked) [BL-S1052]
MIC (Str. pyogenes A9604): 0.03 µg/mL | MIC (S. pneumoniae A9585): 0.06 µg/mL | solubility (Water solubility): > 400 mg/mL | MIC (Ent. cloacae A9656): > 125 µg/mL | MIC (S. aureus Smith A9537; SMITHA9537, 10^-4 dilution, nutrient broth): 0.13 µg/mL (≈ 0.24 µM) | MIC (S. aureus Smith A9537; SMITHA9537, +50% serum, 10^-4 dilution): 2 µg/mL (≈ 3.7 µM) | MIC [1]: 4 µg/mL (≈ 7.4 µM) | MIC (E. coli A9675): 2 µg/mL (≈ 3.7 µM) | MIC (K. pneumoniae A15130): 1 µg/mL (≈ 1.85 µM) | MIC (Ps. Aeruginosa A9843A): > 125 µg/mL | MIC (Sal. enteritidis A9531): 0.13 µg/mL (≈ 0.24 µM) | MIC (E. coli Juhl A15119): 1 µg/mL (≈ 1.85 µM) | MIC (Ser. marcescens A20019): > 125 µg/mL | MIC (Pr. mirabilis A9900): 0.5 µg/mL (≈ 0.925 µM) | MIC (K. pneumoniae A9977): 0.5 µg/mL (≈ 0.925 µM) | MIC (Ent. cloacae A9657): 0.5 µg/mL (≈ 0.925 µM) | concentration at 0.25 h ([2]; 0.25 hr): 15100 ng/mL | concentration at 0.5 h ([2]; 0.5 hr): 15100 ng/mL | concentration at 1 h ([2]; 1 hr): 11500 ng/mL | concentration at 1.5 h ([2]; 1.5 hr): 7800 ng/mL | concentration at 0.5 h ([3]; 0.5 hr): 45200 ng/mL | concentration at 1 h ([3]; 1 hr): 48100 ng/mL | concentration at 2 h ([3]; 2 hr): 31900 ng/mL | concentration at 3.5 h ([3]; 3.5 hr): 14400 ng/mL | Hydrolysis of the derivative to parent compound BL-S640 and its presumed metabolite [4]: complete hydrolysis | Antibiotically active spots in urine ([4]; paper chromatography system No. 9): Two spots identically located | dose excreted at 6 h ([5]; 10 mg/kg, IM 10 mg./kg.): 21.7% | dose excreted at 24 h ([5]; 10 mg/kg, IM 10 mg./kg., 0-24 hr): 24.1% | dose excreted at 24 h ([5]; 10 mg/kg, IM 10 mg./kg., 6-24 hr): 2.4% | dose excreted at 6 h ([5]; 50 mg/kg, IM 50 mg./kg.): 40.3% | dose excreted at 24 h ([5]; 50 mg/kg, IM 50 mg./kg., 0-24 hr): 42.4% | dose excreted at 24 h ([5]; 50 mg/kg, IM 50 mg./kg., 6-24 hr): 2.1% | % Free BL-S640 Present ([6]; 0 hours): 69.2% | % free BL-S640 present at 1 h ([6]; 1 hour): 74.2% | % free BL-S640 present at 2 h ([6]; 2 hours): 94.5%
